From patent US20150315218A1, “SALTS OF PRODRUGS OF PIPERAZINE AND SUBSTITUTED PIPERIDINE ANTIVIRAL AGENTS” (Bristol-Myers Squibb Company, priority 2004, published 2015)
Counter-ions that a name gives are not always drawn. Like-named read-outs stand apart in the source and are kept apart here. Each block holds one molecule with its values, some of them ahead of it.

Legend:
[1] = Single-dose oral toxicokinetic study of prodrugs in rats; format: in vivo, rat; details: for concentration at 24 h / Cmax / AUC: plasma; for concentration at 24 h: oral, read-out: C24 h; for Cmax / AUC: po
Experimental: A 1-day oral toxicokinetic study in rats was conducted using the prodrug Iab (monolysine salt). Iab was administered at dosages of 16, 72, and 267 mg/kg (free acid) by oral gavage to three male rats/group using water as the vehicle (solution formulation). The dosages of prodrug free acid correspond to IVa (parent) molar equivalent dosages of 13, 57, and 211 mg/kg, respectively. The endpoint evaluated was plasma toxicokinetics of Iab and IVa in the individual rats.
A 1-day oral toxicokinetic study in rats was conducted by using the prodrug Ibb (monolysine salt). Ibb was administered at dosages of 19, 64, and 236 mg/kg (free acid) by oral gavage to three male rats/group using water as the vehicle (solution formulation).
A 1-day oral toxicokinetic study in rats was conducted using the prodrug Icb (disodium salt). Icb was administered at dosages of 5, 25, and 200 mg/kg (free acid) by oral gavage to three male rats/group using water as the vehicle (solution formulation).

[2] = Single-dose toxicokinetic and tolerability study of prodrugs in dogs; format: in vivo, dog; details: for AUC(0-inf) / concentration at 24 h / Cmax: plasma; for concentration at 24 h: read-out: C24h
Experimental: A multi-phase study was conducted to evaluate the tolerability of the prodrug, Iab (monolysine salt) at dosages of 24, 90, or 240 mg/kg (free acid, molar equivalent to 19, 71, or 190 mg/kg of parent IVa, respectively) and the toxicokinetics of lab and IVa (4). Iab was administered to two female dogs/group once daily either as an aqueous solution (24 or 90 mg/kg) or dry-filled capsules (24, 90 [once and twice daily] or 240 mg/kg). The endpoints were: clinical signs, body weight, food consumption, and plasma toxicokinetics of lab and IVa. In all cases, a 1-week washout period was used between doses for all phases of the study. […]
On day 1, Icb was administered to one dog/sex/group once daily in dry-filled capsules at the above dosages. A 1-week washout period was used between doses in the study. On day 8, Icb was administered to one dog/sex/group once daily as an aqueous solution at 25 mg/kg or twice daily in dry-filled capsules at 46 or 125 mg/kg BID.

[3] = IV and PO pharmacokinetic studies of prodrug salts (Iab, Ibb, Icb) in the rat, with historical parent data; format: in vivo, Sprague-Dawley rats
Experimental: (§1) All blood samples (0.3 mL) were colleted in microtainers containing K2EDTA (Becton Dickinson, Franklin Lakes, N.J.) and placed on chipped ice. After centrifugation, plasma was separated and stored at −20° C. until analysis. The mono-lysine salt of Iab (Form 3, Lot 1) was used for the pharmacokinetic studies. The dosing solutions of Iab were prepared in either sterile water (for IV administration in dogs and monkeys) or distilled water (for all other dose administration).
Male Sprague-Dawley rats (300-350 g, Hilltop Lab Animals, Inc., Scottsdale, Pa.) with cannulas implanted in the jugular vein were used. The rats were fasted overnight in the PO pharmacokinetic studies. Blood samples were collected from the jugular vein.
In the IV study, Iab was delivered at 1.4 mg/kg (free acid, or 1.1 mg/kg of IVa equivalent) as a bolus over 0.5 min (n=3).
In the PO study, Iab was administered at 7.9 mg/kg (free acid, or 6.3 mg/kg of IVa equivalent) by oral gavage (n=3). The concentration of the dosing solution was 4.0 mg/mL, and the dosing volume was 2 mL/kg.
The pharmacokinetic parameters of Iab and IVa were calculated by Non-Compartmental Analysis using the […]™ software program (version 4.0.2, InnaPhase Co., Philadelphia, Pa.). The Cmax and Tmax values were recorded directly from experimental observations. The AUC0-n and AUCtot values were calculated using the mixed log-linear trapezoidal summations. The total body clearance (Cl), mean residence time (MRT), and the steady state volume of distribution (Vss) were also calculated after intravenous administration. The absolute oral bioavailability (expressed as %) was estimated by taking the ratio of dose-normalized AUC values after oral doses to those after intravenous doses.
as §1, with “Ibb” for “Iab”, “3)” for “3, Lot 1)”
(§2) The Cmax and Tmax values were recorded directly from experimental observations. The AUC0-n and AUCtot values were calculated using the mixed log-linear trapezoidal summations. The total body clearance (Cl), mean residence time (MRT), and the steady state volume of distribution (Vss) were also calculated after intravenous administration. The absolute oral bioavailability (expressed as %) was estimated by taking the ratio of dose-normalized AUC values after oral doses to those after intravenous doses.
In the IV study, Icb was delivered at 1.4 mg/kg (free acid, or 1.1 mg/kg of IVe equivalent) as a bolus over 0.5 min (n=3).
In the PO study, Icb was administered at 6.9 mg/kg (free acid, or 5.6 mg/kg of IVe equivalent) by oral gavage (n=3).
as §2

[4] = female, dog, 25 mg/kg, dog 2201F, day 8, Icb 25 mg/kg QD aqueous solution
[5] = female, dog, po, 25 mg/kg, dog 2201F, day 1, Icb 25 mg/kg (IVc equiv. 20) QD dry-filled capsules
[6] = female, dog, po, 46 mg/kg, dog 3201F, day 8, Icb 46 mg/kg BID dry-filled capsules
[7] = female, dog, po, 92 mg/kg, dog 3201F, day 1, Icb 92 mg/kg (IVc equiv. 75) QD dry-filled capsules
[8] = female, dog, po, 125 mg/kg, dog 4201F, day 8, Icb 125 mg/kg BID dry-filled capsules, emesis
[9] = female, dog, po, 250 mg/kg, dog 4201F, day 1, Icb 250 mg/kg (IVc equiv. 203) QD dry-filled capsules, emesis
[10] = male, dog, 25 mg/kg, dog 2101M, day 8, Icb 25 mg/kg QD aqueous solution
[11] = male, dog, po, 25 mg/kg, dog 2101M, day 1, Icb 25 mg/kg (IVc equiv. 20) QD dry-filled capsules
[12] = male, dog, po, 46 mg/kg, dog 3101M, day 8, Icb 46 mg/kg BID dry-filled capsules
[13] = male, dog, po, 92 mg/kg, dog 3101M, day 1, Icb 92 mg/kg (IVc equiv. 75) QD dry-filled capsules, emesis
[14] = male, dog, po, 125 mg/kg, dog 4101M, day 8, Icb 125 mg/kg BID dry-filled capsules, emesis
[15] = male, dog, po, 250 mg/kg, dog 4101M, day 1, Icb 250 mg/kg (IVc equiv. 203) QD dry-filled capsules, emesis

- AUCtot ([3]; PO IVc 5 mg/kg, historical IVc): 111 ± 25 µM·h
- bioavailability ([3]; Sprague-Dawley, plasma, historical parent, PO 5 mg/kg, read-out: Bioavailability (%)): 82%
- Tmax ([3]; Sprague-Dawley, plasma, historical parent, PO 5 mg/kg, read-out: Tmax (hr), PO): 4 h
- bioavailability ([3]; male, Sprague-Dawley, plasma, oral prodrug, calculated from historical IV data of parent, read-out: Bioavailability (%) of parent from prodrug): 80%
- bioavailability ([3]; male, Sprague-Dawley, plasma, oral, […], read-out: Bioavailability): 80%
- Tmax ([3]; male, Sprague-Dawley, plasma, parent after oral prodrug (~5-6 mg/kg parent equivalent), read-out: Tmax (hr), PO): 0.8 h
- Tmax ([3]; male, Sprague-Dawley, plasma, po, […], read-out: Tmax): 0.8 ± 0.3 h
- AUC ([3]; plasma, iv, 1 mg/kg, read-out: AUCtot): 27 ± 4 µM·h
- MRT ([3]; plasma, iv, 1 mg/kg, read-out: MRT): 4.5 ± 0.77 h
- Vd ([3]; plasma, iv, 1 mg/kg, read-out: Vdss): 0.36 ± 0.098 L/kg
- concentration at 24 hr ([3]; plasma, oral, 5 mg/kg, read-out: C-24 hr): 0.19 ± 0.048 µM
- bioavailability ([3]; plasma, po, 5 mg/kg, read-out: Bioavailability): 82%
- Cmax ([3]; plasma, po, 5 mg/kg, read-out: Cmax): 13 ± 3.6 µM
- Tmax ([3]; plasma, po, 5 mg/kg, read-out: Tmax): 4 h
- bioavailability ([3]; plasma, po, range over rats, dogs and monkeys, read-out: oral bioavailabilities of parent after administration of prodrug): 80 to 122%
SMILES: COc1cnc(-n2cnc(C)n2)c2[nH]cc(C(=O)C(=O)N3CCN(C(=O)c4ccccc4)CC3)c12 [IVc]
- concentration at 24 h ([1]; male, CD, rat, 5 mg/kg): 0.029 µM
- concentration at 24 h ([1]; male, CD, rat, 25 mg/kg): 0.35 µM
- concentration at 24 h ([1]; male, CD, rat, 200 mg/kg): 58 µM
- Cmax ([1]; male, CD, rat, 5 mg/kg): 29 µM
- AUC ([1]; male, CD, rat, 5 mg/kg, read-out: AUC from zero to ∞): 109 µM·h
- Cmax ([1]; male, CD, rat, 25 mg/kg): 98 µM
- AUC ([1]; male, CD, rat, 25 mg/kg, read-out: AUC from zero to ∞): 586 µM·h
- AUC ([1]; male, CD, rat, 200 mg/kg): 2920 µM·h
- Cmax ([1]; male, CD, rat, 200 mg/kg): 281 µM
- time post-dose at which mean maximum plasma concentration (Cmax) was achieved ([1]; rats, single oral dose of prodrug): ≤ 1.7 h
- time post-second dose at which mean Cmax of parent was achieved ([2]; dogs, BID dosing of prodrug): 1 to 2 h
- time post-dose at which mean Cmax of parent was achieved ([2]; dogs, once daily (QD) dosing of prodrug): 1 to 2 h
- AUC(0-inf) [2, 4]: 173 µM·h
- concentration at 24 h [2, 4]: 0.107 µM
- concentration at 24 h ([2]; female, dog, oral, 25 mg/kg, dog 2201F, day 1, Icb 25 mg/kg (IVc equiv. 20) QD dry-filled capsules): 0.688 µM
- Cmax ([2]; female, dog, oral, 25 mg/kg, dog 2201F, day 8, Icb 25 mg/kg QD aqueous solution): 46.8 µM
- concentration at 24 h ([2]; female, dog, oral, 46 mg/kg, dog 3201F, day 8, Icb 46 mg/kg BID dry-filled capsules): 0.307 µM
- concentration at 24 h ([2]; female, dog, oral, 92 mg/kg, dog 3201F, day 1, Icb 92 mg/kg (IVc equiv. 75) QD dry-filled capsules): 0.202 µM
- concentration at 24 h ([2]; female, dog, oral, 125 mg/kg, dog 4201F, day 8, Icb 125 mg/kg BID dry-filled capsules): 1.96 µM
- concentration at 24 h ([2]; female, dog, oral, 250 mg/kg, dog 4201F, day 1, Icb 250 mg/kg (IVc equiv. 203) QD dry-filled capsules): 0.704 µM
- AUC(0-inf) [2, 5]: 122 µM·h
- Cmax [2, 5]: 24.6 µM
- AUC(0-inf) [2, 6]: 490 µM·h
- Cmax [2, 6]: 104 µM
- AUC(0-inf) [2, 7]: 730 µM·h
- Cmax [2, 7]: 157 µM
- AUC(0-inf) [2, 8]: 596 µM·h
- Cmax [2, 8]: 96.9 µM
- AUC(0-inf) [2, 9]: 523 µM·h
- Cmax [2, 9]: 88.9 µM
- AUC(0-inf) [2, 10]: 362 µM·h
- concentration at 24 h [2, 10]: 0.547 µM
- concentration at 24 h ([2]; male, dog, oral, 25 mg/kg, dog 2101M, day 1, Icb 25 mg/kg (IVc equiv. 20) QD dry-filled capsules): 0.008 µM
- Cmax ([2]; male, dog, oral, 25 mg/kg, dog 2101M, day 8, Icb 25 mg/kg QD aqueous solution): 59.4 µM
- concentration at 24 h ([2]; male, dog, oral, 46 mg/kg, dog 3101M, day 8, Icb 46 mg/kg BID dry-filled capsules): 10.6 µM
- concentration at 24 h ([2]; male, dog, oral, 92 mg/kg, dog 3101M, day 1, Icb 92 mg/kg (IVc equiv. 75) QD dry-filled capsules): 1.9 µM
- concentration at 24 h ([2]; male, dog, oral, 125 mg/kg, dog 4101M, day 8, Icb 125 mg/kg BID dry-filled capsules): 54.2 µM
- concentration at 24 h ([2]; male, dog, oral, 250 mg/kg, dog 4101M, day 1, Icb 250 mg/kg (IVc equiv. 203) QD dry-filled capsules): 2.61 µM
- AUC(0-inf) [2, 11]: 365 µM·h
- Cmax [2, 11]: 65.1 µM
- AUC(0-inf) [2, 12]: 1140 µM·h
- Cmax [2, 12]: 121 µM
- AUC(0-inf) [2, 13]: 820 µM·h
- Cmax [2, 13]: 117 µM
- AUC(0-inf) [2, 14]: 3780 µM·h
- Cmax [2, 14]: 226 µM
- AUC(0-inf) [2, 15]: 739 µM·h
- Cmax [2, 15]: 92.6 µM

- T1/2 ([3]; male, Sprague-Dawley, in vivo, iv, […]): 5.04 ± 0.72 min
SMILES: COc1cnc(-n2cnc(C)n2)c2c1c(C(=O)C(=O)N1CCN(C(=O)c3ccccc3)CC1)cn2COP(=O)(O)O [Icb, [3-[(4-benzoylpiperazin-1-yl)(oxo)acetyl]-4-methoxy-7-(3-methyl-1H-1,2,4-triazol-1-yl)-1H-pyrrolo[2,3-c]pyridin-1-yl]methyl dihydrogen phosphate, 2-amino-2-(hydroxymethyl)propane-1,3-diol salt (1:1)]
- prodrug concentrations in plasma ([1]; male, CD, rat, in vivo, 200 mg/kg): 0.02 to 0.04 µM
- prodrug in plasma ([1]; rat, in vivo, 25 mg/kg): not detected
- Emesis (footnote 4) ([2]; both, dog, in vivo): ^4Emesis observed within 2 hours of dosing with capsule remnant present
- Emesis (footnote 5) ([2]; both, dog, in vivo): ^5Emesis observed within 2 hours of dosing with no capsule remnant
- levels of prodrug detected in some plasma samples ([2]; both, dog, in vivo): ≤ 0.1 µM
